Assays:
[1] = target: T1, R15B-PP1c holophosphatase (R15B^340-698-PP1c) (Homo sapiens, UniProt Q5SWA1); experiment: Holophosphatase SPR, compounds binding to reconstituted R15B-PP1c; conditions: holophosphatase reconstituted on SA chip; 20°C; mean ± SD; read-out: KD, steady-state affinity for R15B-PP1c
T1 construct: cDNAs encoding amino acids 325-636 of R15A and 340-698 of R15B were cloned into pMAL-c5x; made in house; host or cells: R15B: E. coli BL21-Gold (DE3) pLysS; bio-PP1c: Sf9 insect cells (baculovirus)
T1 sequence (Q5SWA1 340-698): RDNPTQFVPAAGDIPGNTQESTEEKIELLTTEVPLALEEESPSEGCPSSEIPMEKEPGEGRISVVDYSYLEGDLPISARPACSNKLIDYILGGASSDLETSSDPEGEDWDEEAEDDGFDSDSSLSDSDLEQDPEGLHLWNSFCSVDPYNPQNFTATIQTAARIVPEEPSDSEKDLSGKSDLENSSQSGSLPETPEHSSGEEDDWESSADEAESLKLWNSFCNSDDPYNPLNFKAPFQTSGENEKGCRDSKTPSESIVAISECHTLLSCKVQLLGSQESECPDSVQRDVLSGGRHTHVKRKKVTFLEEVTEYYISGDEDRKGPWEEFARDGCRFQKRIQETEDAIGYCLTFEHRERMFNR
T1 sequence (P36873 1-322 partner limits assumed): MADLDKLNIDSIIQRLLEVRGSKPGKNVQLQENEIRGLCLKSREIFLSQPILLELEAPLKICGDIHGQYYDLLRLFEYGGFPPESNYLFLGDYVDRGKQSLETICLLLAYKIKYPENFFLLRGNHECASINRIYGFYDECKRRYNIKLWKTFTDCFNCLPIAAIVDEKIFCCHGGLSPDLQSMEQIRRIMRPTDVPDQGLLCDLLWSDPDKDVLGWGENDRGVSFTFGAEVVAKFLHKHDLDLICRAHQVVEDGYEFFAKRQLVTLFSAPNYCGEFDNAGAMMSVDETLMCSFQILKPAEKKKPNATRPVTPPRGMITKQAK
Method: (§1) Small molecules were stored as 50 mM stock solutions in 100% DMSO. […] If necessary the concentration range was adjusted to accurately determine the KD depending on the initial results. […] This was followed by 1 min stabilization period, to wash off any unspecific binding. […] After each dilution series, the surface was regenerated using 3 M NaCl for 90 s. […] In order to be able to correct for small variations in DMSO concentration between samples, eight solvent samples ranging from 0.06 to 8% DMSO were injected every 50th cycle. The flow cell temperature was 20°C.

[2] = test system: R15B-PP1c holophosphatase (R15B^340-698-PP1c); experiment: as above; parameters: species or system human; conditions: ratio of SPR KD values
Method: as §1

R15b −/− cells = experiment: eIF2α phosphorylation and translation rates in R15b −/− MEF cells; assay type: cell-based, mouse; conditions: 10 μM
Method: HeLa or MEF cells (90,000 cells/mL) were plated in 12-well plates (1 mL/well). The following day cells were treated as indicated; the medium was removed, fresh medium containing compound added and incubated at 37°C for the times indicated. The time course was performed in reverse order to facilitate collecting all samples at the same time. At the end of treatment cells were washed two times with ice-cold PBS and lysed in 150 μL Laemmli Buffer. Lysates were transferred to 1.5 mL eppendorf tubes, boiled at 95°C for 5 min, sonicated and resolved on Bolt SDS-PAGE 4%–12% Bis-Tris gels (ThermoFisher Scientific). Proteins were transferred to the nitrocellulose membrane using the iBlot 2 system (ThermoFisher Scientific). Membrane was blocked in 5% skimmed milk for 30 min and then probed with primary antibodies followed by incubation with the appropriate horseradish peroxidase-conjugated secondary antibodies (Promega). Proteins were visualized using ECL Prime (GE Healthcare) and imaged in the Chemi-Smart 5000 (Vilber-Lourmat, France) or ChemiDoc Touch (BioRad). Bands were quantified using ImageJ (NIH, USA). […]
HeLa or MEF cells (90,000 cells/mL) were plated in 12-well plates (1 mL/well). […] The gels were then exposed to a Storage Phosphor Screen (GE Healthcare) and analyzed by phosphorimaging using a Typhoon Imager Scanner (GE Healthcare).

HeLa cells = experiment: Monitoring cell viability (CellTox Green, IncuCyte); assay type: cell-based
Method: HeLa cells (40,000 cells/mL) were plated in 96-well plates (0.1 mL/well). The following day the cells were treated with different concentrations of Raphin1, in triplicate, as indicated and incubated at 37°C for 48 hr. To monitor cell death 1:2,000 dilution of the CellTox Green Dye (Promega) was added to the medium. The growth of the cells was monitored over time and pictures taken every 2 hr (two per well) with the IncuCyte ZOOM system (Essen BioScience). The default software parameters for a 96-well plate (Corning) with a 10x objective were used for imaging and the images were analyzed by the IncuCyte ZOOM software (Essen BioScience). The software was used to calculate the confluency from the two non-overlapping images of each well at each time point. The phase confluency refers to the percentage of the image area that is occupied by cells. The green confluency refers to the percentage of the image area that fluoresces green. The CellTox Green Dye (Promega) preferentially stains dead cells’ DNA, but is excluded from viable cells. To assess the effect of Raphin1 on cell viability, the percentage of dead cells was calculated as follows: %ofdeadcells=Greenconfluency(%)atXhours/Phaseconfluency(%)atXhours×100

R15B-PP1c = target: T2, R15B-PP1c (Homo sapiens, UniProt Q5SWA1); experiment: Selective holophosphatase activity assay, eIF2α dephosphorylation by R15B-PP1c; assay type: biochemical; conditions: Raphin1 100 μM, 30°C, 16 hr
T2 construct: cDNAs encoding amino acids 325-636 of R15A and 340-698 of R15B were cloned into pMAL-c5x; made in house; host or cells: E. coli (R15 and eIF2α: BL21-Gold (DE3) pLysS; PP1: BL21/pGro7)
T2 sequence (Q5SWA1 340-698): as the sequence (Q5SWA1 340-698) above
T2 sequence (P62136 7-330 partner limits assumed): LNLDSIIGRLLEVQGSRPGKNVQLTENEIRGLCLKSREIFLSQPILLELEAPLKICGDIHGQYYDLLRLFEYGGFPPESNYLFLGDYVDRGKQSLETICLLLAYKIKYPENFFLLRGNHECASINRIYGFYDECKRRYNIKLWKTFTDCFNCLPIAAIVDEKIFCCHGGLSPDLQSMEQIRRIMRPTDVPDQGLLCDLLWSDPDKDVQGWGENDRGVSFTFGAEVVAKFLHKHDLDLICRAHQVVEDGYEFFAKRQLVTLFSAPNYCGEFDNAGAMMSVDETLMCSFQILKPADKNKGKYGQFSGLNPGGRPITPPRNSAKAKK
Method: The assay was performed as previously described ([Carrara et al., 2017]). Dephosphorylation experiments were carried out in dephosphorylation buffer (50 mM Tris pH 7.4, 1.5 mM EGTA pH 8.0, 2 mM MnCl2), and all proteins were diluted to the appropriate concentration in dephosphorylation buffer. PP1c was diluted to 10 nM, R15s were diluted to 50 nM and P-eIF2α was diluted to 1 μM. Proteins were mixed as appropriate, and Raphin1 at 100 μM or DMSO vehicle control were added. Reactions were incubated at 30°C for 16 hr. 4% SDS-Laemmli sample buffer was added to stop the reactions. Samples were loaded on 4%–12% NuPAGE Bis-Tris gels (ThermoFisher Scientific), diluted 1-fold, and analyzed by immunoblotting using anti-Phospho-eIF2α (Ser51) (Cell Signaling (#9721); […]) and total anti-eIF2α (AbCam (#ab26197); 1:1,000) antibodies.

Compound: [H]/N=C(\N)NN=Cc1cccc(Cl)c1Cl [Raphin1, (E)-2-(2,3-dichlorobenzylidene)hydrazine-1-carboximidamide]
- Kd [1]: 0.033 ± 0.02 µM
- Selectivity in binding R15B-PP1c over R15A-PP1c [2]: ~30 fold
- Measurable effects on eIF2α phosphorylation and translation (R15b −/− cells): abolished
- Toxicity to cells (% of dead cells) (HeLa cells; 20 μM): toxic
- Toxicity to cells (% of dead cells) (HeLa cells; concentration corresponding to brain level after 2 mg/kg (∼1.5 μM), continuously applied for 48 hr): not toxic
- Dephosphorylation of eIF2α by R15B-PP1c (R15B-PP1c): inhibited
